Experiments:
human Cathepsin S = human Cathepsin S (Homo sapiens (Human), UniProt P25774); assay: Cathepsin enzyme inhibition assay (fluorogenic peptide substrate), human Cat S; format: biochemical; settings: human Cat S 1 nM, substrate Z-Val-Val-Arg-AMC 20 μM, pH 6.5
Description: (§1) Cathepsin Enzyme Inhibition Assay
(§2) Enzyme activity is measured by observing the increase in fluorescence intensity caused by cleavage of a peptide substrate containing a fluorophore whose emission is quenched in the intact peptide.
(§3) Assay buffer: 100 mM potassium phosphate pH 6.5, EDTA-Na 5 mM, Triton X-100 0.001%, DTT 5 mM.
(§4) Enzymes (all at 1 nM): human and mouse Cathepsin S, Cat K, Cat B, Cat L.
(§5) Substrate (20 μM): Z-Val-Val-Arg-AMC, except for Cat K which uses Z-Leu-Arg-AMC (both from Bachem).
(§6) AMC=7-Amino-4-Methyl-Coumarin.
(§7) Excitation 360 nm, Emission 465 nm.
(§8) Enzyme is added to the substance dilutions in 96-well microtitre plates and the reaction is started with substrate. […] IC50 are calculated by standard methods.
(§9) Inhibition of human Cat S, mouse Cat S, human Cat K, human Cat B, human Cat L and mouse Cat L have been measured separately.

human Cat L = human Cat L (Homo sapiens (Human), UniProt P07711); assay: Cathepsin enzyme inhibition assay (fluorogenic peptide substrate), human Cat L; format: biochemical; settings: human Cat L 1 nM, substrate Z-Val-Val-Arg-AMC 20 μM, pH 6.5
human Cat L, sequence (P07711 114-333): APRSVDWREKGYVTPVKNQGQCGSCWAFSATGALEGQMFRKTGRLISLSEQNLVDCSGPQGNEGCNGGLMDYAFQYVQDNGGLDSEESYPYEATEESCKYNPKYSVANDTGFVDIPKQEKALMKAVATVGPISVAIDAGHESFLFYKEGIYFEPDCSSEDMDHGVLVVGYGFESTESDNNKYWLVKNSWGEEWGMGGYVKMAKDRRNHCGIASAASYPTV
Description: as §1, §2, §3, §4, §5, §6, §7, §8, §9

human Cathepsin S, sequence (P25774 115-331): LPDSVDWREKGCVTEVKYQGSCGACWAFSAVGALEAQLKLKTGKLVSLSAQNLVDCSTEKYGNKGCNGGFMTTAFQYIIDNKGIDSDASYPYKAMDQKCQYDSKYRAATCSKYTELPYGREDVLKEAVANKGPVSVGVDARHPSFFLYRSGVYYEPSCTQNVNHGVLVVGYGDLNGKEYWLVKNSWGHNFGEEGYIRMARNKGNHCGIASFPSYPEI

Row | IC50 (human Cathepsin S) | IC50 (human Cat L) | SMILES
1 | 964 nM |  | N#CC1(NC(=O)[C@@H]2C[C@@H](Sc3ncccc3Cl)CN2C(=O)C2(c3ncc(Cl)cc3F)CC2)CC1 [Example 10, (2S,4R)-1-[1-(5-Chloro-3-fluoro-pyridin-2-yl)-cyclopropanecarbonyl]-4-(3-chloro-pyridin-2-ylsulfanyl)-pyrrolidine-2-carboxylic acid (1-cyano-cyclopropyl)-amide]
2 |  | 247 nM | N#CC1(NC(=O)[C@@H]2C[C@@H](S(=O)(=O)c3cccc(-c4ccc(F)cc4)c3)CN2C(=O)C2(c3ncc(Cl)cc3F)CC2)CC1 [Example 13, (2S,4R)-1-[1-(5-Chloro-3-fluoro-pyridin-2-yl)-cyclopropanecarbonyl]-4-(4′-fluorobiphenyl-3-sulfonyl)-pyrrolidine-2-carboxylic acid (1-cyano-cyclopropyl)-amide]
3 | 0.438 nM | 19.2 nM | N#CC1(NC(=O)[C@@H]2C[C@@H](S(=O)(=O)c3ccccc3Cl)CN2C(=O)C2(c3ncc(Br)cc3F)CC2)CC1 [Example 8, (2S,4R)-1-[1-(5-Bromo-3-fluoro-pyridin-2-yl)-cyclopropanecarbonyl]-4-(2-chloro-benzenesulfonyl)-pyrrolidine-2-carboxylic acid (1-cyano-cyclopropyl)-amide]
4 | 0.696 nM | 43.6 nM | Cn1cc(-c2ccc(S(=O)(=O)[C@@H]3C[C@@H](C(=O)NC4(C#N)CC4)N(C(=O)C4(c5ncc(C(F)(F)F)cc5F)CC4)C3)c(Cl)c2)cn1 [Example 39, (2S,4R)-4-[2-Chloro-4-(1-methyl-1H-pyrazol-4-yl)-benzenesulfonyl]-1-[1-(3-fluoro-5-trifluoromethyl-pyridin-2-yl)-cyclopropanecarbonyl]-pyrrolidine-2-carboxylic acid (1-cyano-cyclopropyl)-amide]
5 | 594 nM | 8230 nM | N#CC1(NC(=O)[C@@H]2C[C@@H](Sc3ccccn3)CN2C(=O)C2(c3ncc(Cl)cc3F)CC2)CC1 [Example 12, (2S,4R)-1-[1-(5-Chloro-3-fluoro-pyridin-2-yl)-cyclopropanecarbonyl]-4-(pyridin-2-ylsulfanyl)-pyrrolidine-2-carboxylic acid (1-cyano-cyclopropyl)-amide]
6 | 159 nM | 17400 nM | N#CC1(NC(=O)[C@@H]2C[C@@H](S(=O)(=O)c3ccccc3-n3cccn3)CN2C(=O)C2(c3ncc(Cl)cc3F)CC2)CC1 [Example 46]
7 | 4.24 nM | 3430 nM | N#CC1(NC(=O)[C@@H]2C[C@@H](S(=O)(=O)c3ccccn3)CN2C(=O)C2(c3ncc(Cl)cc3F)CC2)CC1 [Example 18, (2S,4R)-1-[1-(5-Chloro-3-fluoro-pyridin-2-yl)-cyclopropanecarbonyl]-4-(pyridine-2-sulfonyl)-pyrrolidine-2-carboxylic acid (1-cyano-cyclopropyl)-amide]
8 | 275 nM | 10000 nM | N#CC1(NC(=O)[C@@H]2C[C@@H](Sc3ncccc3C(F)(F)F)CN2C(=O)C2(c3ncc(Cl)cc3F)CC2)CC1 [Example 21, (2S,4R)-1-[1-(5-Chloro-3-fluoro-pyridin-2-yl)-cyclopropanecarbonyl]-4-(3-trifluoromethyl-pyridin-2-ylsulfanyl)-pyrrolidine-2-carboxylic acid (1-cyano-cyclopropyl)-amide]
9 | 0.375 nM | 28.7 nM | Cn1cc(-c2ccc(S(=O)(=O)[C@@H]3C[C@@H](C(=O)NC4(C#N)CC4)N(C(=O)C4(c5ncc(Cl)cc5F)CC4)C3)c(Cl)c2)cn1 [Example 33, (2S,4R)-1-[1-(5-Chloro-3-fluoro-pyridin-2-yl)-cyclopropanecarbonyl]-4-[2-chloro-4-(1-methyl-1H-pyrazol-4-yl)-benzenesulfonyl]-pyrrolidine-2-carboxylic acid (1-cyano-cyclopropyl)-amide]
10 | 3.21 nM | 13200 nM | N#CC1(NC(=O)[C@@H]2C[C@@H](S(=O)(=O)c3ncccc3C(F)(F)F)CN2C(=O)C2(c3ncc(Cl)cc3F)CC2)CC1 [Example 25, (2S,4R)-1-[1-(5-Chloro-3-fluoro-pyridin-2-yl)-cyclopropanecarbonyl]-4-(3-trifluoromethyl-pyridine-2-sulfonyl)-pyrrolidine-2-carboxylic acid (1-cyano-cyclopropyl)-amide]
11 | 0.393 nM | 11.9 nM | COc1ccc(S(=O)(=O)[C@@H]2C[C@@H](C(=O)NC3(C#N)CC3)N(C(=O)C3(c4ncc(Cl)cc4F)CC3)C2)c(Cl)c1 [Example 4, (2S,4R)-1-[1-(5-Chloro-3-fluoro-pyridin-2-yl)-cyclopropanecarbonyl]-4-(2-chloro-4-methoxy-benzenesulfonyl)-pyrrolidine-2-carboxylic acid (1-cyano-cyclopropyl)-amide]
12 | 0.825 nM | 429 nM | N#CC1(NC(=O)[C@@H]2C[C@@H](S(=O)(=O)c3ccc(OCC(F)(F)F)cc3Cl)CN2C(=O)C2(c3ccc(Cl)cn3)CC2)CC1 [Example 3, (2S,4R)-1-[1-(5-Chloro-pyridin-2-yl)-cyclopropanecarbonyl]-4-[2-chloro-4-(2,2,2-trifluoro-ethoxy)-benzenesulfonyl]-pyrrolidine-2-carboxylic acid (1-cyano-cyclopropyl)-amide]
13 |  | 52.4 nM | N#CC1(NC(=O)[C@@H]2C[C@@H](Sc3cc(C(F)(F)F)ccc3Cl)CN2C(=O)C2(c3ncc(Cl)cc3F)CC2)CC1 [Example 26, (2S,4R)-1-[1-(5-Chloro-3-fluoro-pyridin-2-yl)-cyclopropanecarbonyl]-4-(2-chloro-5-trifluoromethyl-phenylsulfanyl)-pyrrolidine-2-carboxylic acid (1-cyano-cyclopropyl)-amide]
14 | 0.678 nM | 3.2 nM | Cn1cc(-c2ccc(S(=O)(=O)[C@@H]3C[C@@H](C(=O)NC4(C#N)CC4)N(C(=O)C4(c5ncc(I)cc5F)CC4)C3)c(Cl)c2)cn1 [Example 38, (2S,4R)-4-[2-Chloro-4-(1-methyl-1H-pyrazol-4-yl)-benzenesulfonyl]-1-[1-(3-fluoro-5-iodo-pyridin-2-yl)-cyclopropanecarbonyl]-pyrrolidine-2-carboxylic acid (1-cyano-cyclopropyl)-amide]
15 | 4.27 nM | 35200 nM | N#CC1(NC(=O)[C@@H]2C[C@@H](S(=O)(=O)c3ccccc3-n3ccnn3)CN2C(=O)C2(c3ncc(Cl)cc3F)CC2)CC1 [Example 47, (2S,4R)-1-[1-(5-Chloro-3-fluoro-pyridin-2-yl)-cyclopropanecarbonyl]-4-(2-[1,2,3]triazol-1-yl-benzenesulfonyl)-pyrrolidine-2-carboxylic acid (1-cyano-cyclopropyl)-amide]
16 | 393 nM | 5060 nM | N#CC1(NC(=O)[C@@H]2C[C@@H](Sc3ccc(C(F)(F)F)cn3)CN2C(=O)C2(c3ncc(Cl)cc3F)CC2)CC1 [Example 20, (2S,4R)-1-[1-(5-Chloro-3-fluoro-pyridin-2-yl)-cyclopropanecarbonyl]-4-(5-trifluoromethyl-pyridin-2-ylsulfanyl)-pyrrolidine-2-carboxylic acid (1-cyano-cyclopropyl)-amide]
17 | 11.8 nM | 416 nM | N#CC1(NC(=O)[C@@H]2C[C@@H](Sc3cccc(-c4ccc(F)cc4)c3)CN2C(=O)C2(c3ncc(Cl)cc3F)CC2)CC1 [Example 9, (2S,4R)-1-[1-(5-Chloro-3-fluoro-pyridin-2-yl)-cyclopropanecarbonyl]-4-(4′-fluorobiphenyl-3-ylsulfanyl)-pyrrolidine-2-carboxylic acid (1-cyano-cyclopropyl)-amide]
18 | 6.24 nM | 2690 nM | N#CC1(NC(=O)[C@@H]2C[C@@H](S(=O)(=O)c3ccc(C(F)(F)F)cn3)CN2C(=O)C2(c3ncc(Cl)cc3F)CC2)CC1 [Example 24, (2S,4R)-1-[1-(5-Chloro-3-fluoro-pyridin-2-yl)-cyclopropanecarbonyl]-4-(5-trifluoromethyl-pyridine-2-sulfonyl)-pyrrolidine-2-carboxylic acid (1-cyano-cyclopropyl)-amide]
19 |  | 2120 nM | N#CC1(NC(=O)[C@@H]2C[C@@H](S(=O)(=O)c3ncccc3Cl)CN2C(=O)C2(c3ncc(Cl)cc3F)CC2)CC1 [Example 14, (2S,4R)-1-[1-(5-Chloro-3-fluoro-pyridin-2-yl)-cyclopropanecarbonyl]-4-(3-chloropyridine-2-sulfonyl)-pyrrolidine-2-carboxylic acid (1-cyano-cyclopropyl)-amide]
20 |  | 4610 nM | Cc1cccc(S[C@@H]2C[C@@H](C(=O)NC3(C#N)CC3)N(C(=O)C3(c4ncc(Cl)cc4F)CC3)C2)n1 [Example 19, (2S,4R)-1-[1-(5-Chloro-3-fluoro-pyridin-2-yl)-cyclopropanecarbonyl]-4-(6-methyl-pyridin-2-ylsulfanyl)-pyrrolidine-2-carboxylic acid (1-cyano-cyclopropyl)-amide]
21 | 0.703 nM |  | Cn1cc(-c2ccc(S(=O)(=O)[C@@H]3C[C@@H](C(=O)NC4(C#N)CC4)N(C(=O)C4(c5ncc(Cl)cc5Cl)CC4)C3)c(Cl)c2)cn1 [Example 40, (2S,4R)-4-[2-Chloro-4-(1-methyl-1H-pyrazol-4-yl)-benzenesulfonyl]-1-[1-(3,5-dichloro-pyridin-2-yl)-cyclopropanecarbonyl]-pyrrolidine-2-carboxylic acid (1-cyano-cyclopropyl)-amide]

Source: patent US9409882B2, “Pyridine derivatives” (Hoffmann-La Roche Inc., priority 2012, dated 2016)
